Test results published in article PMC10825133, “Repurposing proteasome inhibitors for improved treatment of triple-negative breast cancer” (Cell Death Discovery, 2024).
Like-named read-outs stand apart in the source and are kept apart here.

Tests used:
BT-549 cells = test: Resazurin-based cell viability assay, monotherapy drug screen; parameters: species or system human; AUC: scale not given here; settings: BT-549; for AUC: area under the dose response curve, 24 h; for GRmax: drug efficacy at highest tested dose (<0 cytotoxic, 0 cytostatic, >0 partial growth inhibition)
Summary of the method: (§1)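 Cells were seeded at the highest density (tested 1000-16000 cells/well) giving linear growth between days 1 and 3, keeping them in exponential phase over the ~52 h experiment. Viability was read after 4 h at 37 °C with 0.2 mg/ml resazurin added at 10% of medium volume; ex 560/em 615 nm.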

HCC1806 cells = test: as above; parameters: species or system human; AUC: scale not given here; settings: HCC1806; for AUC: area under the dose response curve, 24 h; for GRmax: drug efficacy at highest tested dose (<0 cytotoxic, 0 cytostatic, >0 partial growth inhibition)
Summary of the method: as §1

HCC38 cells = test: as above; parameters: species or system human; AUC: scale not given here; settings: HCC38; for AUC: area under the dose response curve, 24 h; for GRmax: drug efficacy at highest tested dose (<0 cytotoxic, 0 cytostatic, >0 partial growth inhibition)
Summary of the method: as §1

HCC70 cells = test: as above; parameters: species or system human; AUC: scale not given here; settings: HCC70; for AUC: area under the dose response curve, 24 h; for GRmax: drug efficacy at highest tested dose (<0 cytotoxic, 0 cytostatic, >0 partial growth inhibition)
Summary of the method: as §1

MCF-10A cells = test: as above; parameters: species or system human; AUC: scale not given here; settings: for AUC: area under the dose response curve, 24 h
Summary of the method: as §1

MCF-7 cells = test: as above; parameters: species or system human; AUC: scale not given here; settings: MCF-7; for AUC: area under the dose response curve, 24 h; for GRmax: drug efficacy at highest tested dose (<0 cytotoxic, 0 cytostatic, >0 partial growth inhibition)
Summary of the method: as §1

MDA-MB-436 cells = test: as above; parameters: species or system human; AUC: scale not given here; settings: MDA-MB-436; for AUC: area under the dose response curve, 24 h; for GRmax: drug efficacy at highest tested dose (<0 cytotoxic, 0 cytostatic, >0 partial growth inhibition)
Summary of the method: as §1

MDA-MB-453 cells = test: as above; parameters: species or system human; AUC: scale not given here; settings: MDA-MB-453; for AUC: area under the dose response curve, 24 h
Summary of the method: as §1

MDA-MB-468 cells = test: as above; parameters: species or system human; AUC: scale not given here; settings: MDA-MB-468; for AUC: area under the dose response curve, 24 h
Summary of the method: as §1

[1] = system: eight TNBC cell lines (BT-549, CAL-148, HCC1806, HCC38, HCC70, MDA-MB-436, MDA-MB-453, MDA-MB-468); test: Monotherapy drug screen, mean across the TNBC cell lines; settings: for area under the dose response curve (AUC), mean ± SD / cytotoxic effect at the highest dose: TNBC cell lines; for area under the dose response curve (AUC), mean ± SD / IC50: 24 h; for IC50: Homo sapiens, read-out: GR50 (mean ± SD); for cytotoxic effect at the highest dose: by GRmax
Summary of the method: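 Cells seeded at 4.0 × 10^3–7.5 × 10^3/well, grown 24 h, then drug-treated 24 h with matched solvent-vehicle controls per concentration; resazurin absorbance read-out, viability normalised to vehicle after background subtraction, t = 0 untreated cells for GR. AUC, IC50, GR50, GRmax via GRmetrics; combinations predicted by IDACombo, synergy scored with SynergyFinder.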

[2] = 24 h drug treatment, read-out: IC50
[3] = growth rate inhibition concentration at GR(c) = 0.5, 24 h, read-out: GR50 (the source's name)
[4] = drug efficacy at highest tested dose (<0 cytotoxic, 0 cytostatic, >0 partial growth inhibition)
[5] = Homo sapiens, 24 h drug treatment, read-out: IC50
[6] = Homo sapiens, growth rate inhibition concentration at GR(c) = 0.5, 24 h, read-out: GR50 (the source's name)
[7] = Homo sapiens, MCF7, growth rate inhibition concentration at GR(c) = 0.5, 24 h, read-out: GR50 (the source's name)
[8] = Homo sapiens, MCF7, 24 h drug treatment, read-out: IC50

N.N.[Cl][Pt][Cl] [Cisplatin]
IC50 (BT-549 cells; [2]): 53 nM
AUC (BT-549 cells): 0.57
GRmax (BT-549 cells): −0.16
IC50 (BT-549 cells; [3]): 35 nM
IC50 (HCC1806 cells; [2]): 48 nM
AUC (HCC1806 cells): 0.48
GRmax (HCC1806 cells): −0.72
IC50 (HCC1806 cells; [3]): 42 nM
IC50 (HCC38 cells; [2]): 30 nM
AUC (HCC38 cells): 0.45
GRmax (HCC38 cells): −0.67
IC50 (HCC38 cells; [3]): 19 nM
IC50 (HCC70 cells; [2]): 22 nM
AUC (HCC70 cells): 0.37
GRmax (HCC70 cells): −0.89
IC50 (HCC70 cells; [3]): 15 nM
IC50 (MCF-10A cells; [2]): 27 nM
AUC (MCF-10A cells): 0.42
GRmax (MCF-10A cells; [4]): −0.32
IC50 (MCF-10A cells; [3]): 28 nM
IC50 (MCF-7 cells; [2]): 160 nM
AUC (MCF-7 cells): 0.66
GRmax (MCF-7 cells): −0.96
IC50 (MCF-7 cells; [3]): 15 nM
IC50 (MDA-MB-436 cells; [2]): 64 nM
AUC (MDA-MB-436 cells): 0.62
GRmax (MDA-MB-436 cells): 0.17
IC50 (MDA-MB-436 cells; [3]): 43 nM
IC50 (MDA-MB-453 cells; [2]): 240 nM
AUC (MDA-MB-453 cells): 0.75
GRmax (MDA-MB-453 cells; [4]): 0.25
IC50 (MDA-MB-453 cells; [3]): 95 nM
IC50 (MDA-MB-468 cells; [2]): 15 nM
AUC (MDA-MB-468 cells): 0.37
GRmax (MDA-MB-468 cells; [4]): −0.46
IC50 (MDA-MB-468 cells; [3]): 7.5 nM
area under the dose response curve (AUC), mean ± SD [1]: 0.51 ± 0.10

CC(C)C[C@H](NC(=O)[C@@H](NC(=O)c1cccc(-c2ccccc2)n1)[C@@H](C)O)B(O)O [Delanzomib]
AUC (BT-549 cells): 0.73
GRmax (BT-549 cells): 0.48
AUC (HCC1806 cells): 0.74
GRmax (HCC1806 cells): 0.50
AUC (HCC38 cells): 0.42
GRmax (HCC38 cells): −0.97
IC50 (HCC38 cells; [5]): 12 nM
IC50 (HCC38 cells; [6]): 8.2 nM
AUC (HCC70 cells): 0.75
GRmax (HCC70 cells): −0.36
IC50 (HCC70 cells; [5]): 3300 nM
IC50 (HCC70 cells; [6]): 370 nM
IC50 (MCF-10A cells; [5]): 18 nM
IC50 (MCF-10A cells; [6]): 12 nM
AUC (MCF-10A cells): 0.62
IC50 (MCF-7 cells; [7]): 37 nM
AUC (MCF-7 cells): 0.77
GRmax (MCF-7 cells): −0.28
IC50 (MDA-MB-436 cells; [6]): 29 nM
AUC (MDA-MB-436 cells): 0.79
GRmax (MDA-MB-436 cells): −0.84
IC50 (MDA-MB-453 cells; [6]): 27 nM
AUC (MDA-MB-453 cells): 0.76
IC50 (MDA-MB-468 cells; [5]): 77 nM
IC50 (MDA-MB-468 cells; [6]): 11 nM
AUC (MDA-MB-468 cells): 0.58
IC50 [1]: 79 ± 130 nM
area under the dose response curve (AUC), mean ± SD [1]: 0.69 ± 0.10

CC(=O)O[C@@]12CO[C@@H]1C[C@H](O)[C@@]1(C)C(=O)[C@H](O)C3=C(C)[C@@H](OC(=O)[C@H](O)[C@@H](NC(=O)OC(C)(C)C)c4ccccc4)C[C@@](O)([C@@H](OC(=O)c4ccccc4)[C@H]21)C3(C)C [Docetaxel]
AUC (BT-549 cells): 0.79
GRmax (BT-549 cells): 0.61
AUC (HCC1806 cells): 0.64
GRmax (HCC1806 cells): 0.56
AUC (HCC38 cells): 0.78
GRmax (HCC38 cells): 0.17
IC50 (HCC38 cells; [6]): 13 nM
AUC (HCC70 cells): 0.83
GRmax (HCC70 cells): 0.72
IC50 (MCF-10A cells; [5]): 50 nM
IC50 (MCF-10A cells; [6]): 9 nM
AUC (MCF-10A cells): 0.63
IC50 (MCF-7 cells; [7]): 6.5 nM
AUC (MCF-7 cells): 0.75
GRmax (MCF-7 cells): −0.44
IC50 (MDA-MB-436 cells; [6]): 5 nM
AUC (MDA-MB-436 cells): 0.69
GRmax (MDA-MB-436 cells): −0.81
AUC (MDA-MB-453 cells): 0.87
AUC (MDA-MB-468 cells): 0.77
IC50 [1]: 8.8 ± 3.9 nM
area under the dose response curve (AUC), mean ± SD [1]: 0.79 ± 0.10

COc1cccc2c1C(=O)c1c(O)c3c(c(O)c1C2=O)C[C@@](O)(C(=O)CO)C[C@@H]3O[C@H]1C[C@H](N)[C@H](O)[C@H](C)O1 [Doxorubicin]
AUC (BT-549 cells): 0.89
GRmax (BT-549 cells): 0.36
IC50 (BT-549 cells; [5]): 7600 nM
IC50 (BT-549 cells; [6]): 5600 nM
AUC (HCC1806 cells): 0.87
GRmax (HCC1806 cells): 0.54
IC50 (HCC1806 cells; [6]): 6000 nM
AUC (HCC38 cells): 0.83
GRmax (HCC38 cells): 0.01
IC50 (HCC38 cells; [5]): 2900 nM
IC50 (HCC38 cells; [6]): 770 nM
AUC (HCC70 cells): 0.88
GRmax (HCC70 cells): −0.35
IC50 (HCC70 cells; [5]): 3300 nM
IC50 (HCC70 cells; [6]): 1800 nM
IC50 (MCF-10A cells; [5]): 990 nM
IC50 (MCF-10A cells; [6]): 980 nM
AUC (MCF-10A cells): 0.72
IC50 (MCF-7 cells; [8]): 1800 nM
IC50 (MCF-7 cells; [7]): 5700 nM
AUC (MCF-7 cells): 0.93
GRmax (MCF-7 cells): 0.44
IC50 (MDA-MB-436 cells; [5]): 9700 nM
IC50 (MDA-MB-436 cells; [6]): 3400 nM
AUC (MDA-MB-436 cells): 0.85
GRmax (MDA-MB-436 cells): 0.26
IC50 (MDA-MB-453 cells; [5]): 8100 nM
IC50 (MDA-MB-453 cells; [6]): 4600 nM
AUC (MDA-MB-453 cells): 0.88
IC50 (MDA-MB-468 cells; [5]): 3000 nM
IC50 (MDA-MB-468 cells; [6]): 1500 nM
AUC (MDA-MB-468 cells): 0.84
cytotoxic effect at the highest dose [1]: lowest cytotoxic effects

COc1cccc2c1C(=O)c1c(O)c3c(c(O)c1C2=O)C[C@@](O)(C(=O)CO)C[C@@H]3O[C@H]1C[C@H](N)[C@@H](O)[C@H](C)O1 [Epirubicin]
AUC (BT-549 cells): 0.88
GRmax (BT-549 cells): 0.34
IC50 (BT-549 cells; [5]): 4600 nM
IC50 (BT-549 cells; [6]): 4300 nM
AUC (HCC1806 cells): 0.86
GRmax (HCC1806 cells): 0.45
IC50 (HCC1806 cells; [6]): 6200 nM
AUC (HCC38 cells): 0.81
GRmax (HCC38 cells): −0.03
IC50 (HCC38 cells; [5]): 2300 nM
IC50 (HCC38 cells; [6]): 690 nM
AUC (HCC70 cells): 0.83
GRmax (HCC70 cells): −0.49
IC50 (HCC70 cells; [5]): 1600 nM
IC50 (HCC70 cells; [6]): 1000 nM
IC50 (MCF-10A cells; [5]): 690 nM
IC50 (MCF-10A cells; [6]): 690 nM
AUC (MCF-10A cells): 0.69
IC50 (MCF-7 cells; [8]): 1500 nM
IC50 (MCF-7 cells; [7]): 1100 nM
AUC (MCF-7 cells): 0.89
GRmax (MCF-7 cells): 0.42
IC50 (MDA-MB-436 cells; [6]): 3600 nM
AUC (MDA-MB-436 cells): 0.84
GRmax (MDA-MB-436 cells): 0.26
IC50 (MDA-MB-453 cells; [5]): 5300 nM
IC50 (MDA-MB-453 cells; [6]): 3200 nM
AUC (MDA-MB-453 cells): 0.90
IC50 (MDA-MB-468 cells; [5]): 2200 nM
IC50 (MDA-MB-468 cells; [6]): 960 nM
AUC (MDA-MB-468 cells): 0.80
cytotoxic effect at the highest dose [1]: lowest cytotoxic effects
